Measured values published in ChEMBL document CHEMBL1909046, “DrugMatrix in vitro pharmacology data”.

How the values were obtained:
[1] = target: Mitogen-activated protein kinase 3 (Homo sapiens, UniProt P27361); experiment: DRUGMATRIX: Protein Serine/Threonine Kinase, ERK1 enzyme inhibition (substrate: Myelin Basic Protein); parameters: species or system Escherichia coli; conditions: Not Active = under 50% inhibition at 10 µM
[2] = target: T1, Neuropeptide Y receptor type 1 (Homo sapiens, UniProt P25929); type: cell membranes, Membrane; conditions: sk-n-mc; also: in other assays of this panel Not Active means under 50% inhibition at 10 µM
T1 sequence (P25929 whole entry): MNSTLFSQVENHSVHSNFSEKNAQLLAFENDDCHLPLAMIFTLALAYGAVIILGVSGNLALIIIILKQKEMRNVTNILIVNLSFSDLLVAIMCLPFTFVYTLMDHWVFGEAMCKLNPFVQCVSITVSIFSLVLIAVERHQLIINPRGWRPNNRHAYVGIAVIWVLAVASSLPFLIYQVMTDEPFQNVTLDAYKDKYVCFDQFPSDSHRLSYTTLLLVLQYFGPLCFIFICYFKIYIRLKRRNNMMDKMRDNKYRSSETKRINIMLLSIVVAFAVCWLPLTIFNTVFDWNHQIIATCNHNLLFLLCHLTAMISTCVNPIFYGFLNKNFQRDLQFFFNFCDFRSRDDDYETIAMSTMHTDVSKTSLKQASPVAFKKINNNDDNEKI

[3] = target: T2, Muscarinic acetylcholine receptor M5 (Homo sapiens, UniProt P08912); type: cell membranes, Membrane; conditions: cho-k1; also: in other assays of this panel Not Active means under 50% inhibition at 10 µM
T2 sequence (P08912 whole entry): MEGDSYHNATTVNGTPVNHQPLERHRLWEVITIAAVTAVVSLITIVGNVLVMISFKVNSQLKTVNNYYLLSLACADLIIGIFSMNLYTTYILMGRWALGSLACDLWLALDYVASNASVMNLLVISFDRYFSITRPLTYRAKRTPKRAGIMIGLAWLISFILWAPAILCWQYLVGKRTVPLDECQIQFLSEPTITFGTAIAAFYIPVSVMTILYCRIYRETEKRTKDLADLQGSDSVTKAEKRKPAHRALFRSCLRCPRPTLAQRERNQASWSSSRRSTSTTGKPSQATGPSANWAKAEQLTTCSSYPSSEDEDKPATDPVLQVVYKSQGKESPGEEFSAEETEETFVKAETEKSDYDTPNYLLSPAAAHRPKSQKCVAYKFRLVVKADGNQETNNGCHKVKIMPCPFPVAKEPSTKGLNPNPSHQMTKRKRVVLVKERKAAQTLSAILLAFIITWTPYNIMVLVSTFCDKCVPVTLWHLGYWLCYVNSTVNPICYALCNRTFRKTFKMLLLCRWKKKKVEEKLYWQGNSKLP

[4] = DRUGMATRIX: ATPase, Na+/K+ enzyme inhibition (substrate: ATP); type: tissue-based, Sus scrofa, Heart; conditions: Not Active = under 50% inhibition at 10 µM
Melanocortin receptor 5 = Melanocortin receptor 5 (Homo sapiens, UniProt P33032); type: cell membranes, HEK293, Membrane; conditions: hek293; also: in other assays of this panel Not Active means under 50% inhibition at 10 µM
Sequence of Melanocortin receptor 5 (P33032 whole entry): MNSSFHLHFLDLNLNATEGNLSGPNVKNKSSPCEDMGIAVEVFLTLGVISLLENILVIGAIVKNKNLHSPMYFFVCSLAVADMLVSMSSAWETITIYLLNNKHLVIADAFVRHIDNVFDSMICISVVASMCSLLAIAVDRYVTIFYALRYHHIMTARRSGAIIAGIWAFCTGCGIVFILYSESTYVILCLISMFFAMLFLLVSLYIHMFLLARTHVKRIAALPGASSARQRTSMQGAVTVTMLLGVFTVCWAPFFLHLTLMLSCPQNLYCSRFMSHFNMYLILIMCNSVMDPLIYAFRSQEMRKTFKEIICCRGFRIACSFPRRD

[5] = target: T3, Receptor-type tyrosine-protein phosphatase C (Homo sapiens, UniProt P08575); parameters: species or system Escherichia coli;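 also: inhibition of CD45 enzyme activity measured using DiFMUP as substrate; in other assays of this panel Not Active means under 50% inhibition at 10 µM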
T3 sequence (P08575 whole entry): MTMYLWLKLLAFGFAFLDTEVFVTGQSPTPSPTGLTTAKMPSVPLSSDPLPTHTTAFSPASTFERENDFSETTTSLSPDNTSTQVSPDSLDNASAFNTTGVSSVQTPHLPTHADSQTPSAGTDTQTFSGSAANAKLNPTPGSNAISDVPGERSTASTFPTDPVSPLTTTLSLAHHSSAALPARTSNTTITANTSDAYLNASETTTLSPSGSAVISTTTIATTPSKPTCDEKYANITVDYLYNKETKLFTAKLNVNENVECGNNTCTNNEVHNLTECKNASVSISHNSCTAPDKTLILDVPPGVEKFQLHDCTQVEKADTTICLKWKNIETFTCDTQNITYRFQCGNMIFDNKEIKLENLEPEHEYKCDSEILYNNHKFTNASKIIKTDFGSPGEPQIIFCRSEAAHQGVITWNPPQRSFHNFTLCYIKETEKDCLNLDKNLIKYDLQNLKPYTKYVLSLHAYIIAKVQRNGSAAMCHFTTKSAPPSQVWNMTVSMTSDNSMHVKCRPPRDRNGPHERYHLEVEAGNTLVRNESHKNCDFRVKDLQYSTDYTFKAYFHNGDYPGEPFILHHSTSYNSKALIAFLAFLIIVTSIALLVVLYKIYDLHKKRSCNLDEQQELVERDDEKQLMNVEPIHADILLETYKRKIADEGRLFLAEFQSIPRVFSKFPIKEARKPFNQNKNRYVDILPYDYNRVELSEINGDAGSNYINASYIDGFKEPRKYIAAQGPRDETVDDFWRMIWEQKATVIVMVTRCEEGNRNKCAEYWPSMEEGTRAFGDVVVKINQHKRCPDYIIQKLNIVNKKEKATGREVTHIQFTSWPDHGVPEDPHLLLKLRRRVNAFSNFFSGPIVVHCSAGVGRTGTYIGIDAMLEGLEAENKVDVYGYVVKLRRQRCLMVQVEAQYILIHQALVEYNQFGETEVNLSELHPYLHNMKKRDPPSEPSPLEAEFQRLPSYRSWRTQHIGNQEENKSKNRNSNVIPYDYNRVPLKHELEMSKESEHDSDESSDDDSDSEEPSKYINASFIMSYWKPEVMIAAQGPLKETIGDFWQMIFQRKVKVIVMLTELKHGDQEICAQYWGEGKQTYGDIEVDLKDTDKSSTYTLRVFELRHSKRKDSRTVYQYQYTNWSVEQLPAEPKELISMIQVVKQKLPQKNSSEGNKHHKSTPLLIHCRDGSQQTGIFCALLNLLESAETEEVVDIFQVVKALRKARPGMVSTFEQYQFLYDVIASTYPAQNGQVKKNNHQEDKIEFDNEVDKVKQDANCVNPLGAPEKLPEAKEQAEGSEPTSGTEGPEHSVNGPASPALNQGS

[6] = target: Delta-type opioid receptor (Homo sapiens, UniProt P41143); type: cell membranes, HEK293, Membrane; conditions: hek293; also: in other assays of this panel Not Active means under 50% inhibition at 10 µM
Sequence of Delta-type opioid receptor (P41143 whole entry): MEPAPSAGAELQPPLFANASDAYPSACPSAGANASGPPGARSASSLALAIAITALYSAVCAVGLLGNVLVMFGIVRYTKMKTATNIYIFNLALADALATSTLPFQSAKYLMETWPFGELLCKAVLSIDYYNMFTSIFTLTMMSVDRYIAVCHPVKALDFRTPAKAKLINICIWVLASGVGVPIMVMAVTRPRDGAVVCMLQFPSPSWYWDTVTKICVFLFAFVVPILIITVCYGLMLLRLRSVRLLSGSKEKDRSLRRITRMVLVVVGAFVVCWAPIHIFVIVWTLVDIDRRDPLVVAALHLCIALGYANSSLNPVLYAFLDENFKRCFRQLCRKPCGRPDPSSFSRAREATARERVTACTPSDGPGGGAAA

Adenosine receptor A3 = target: T4, Adenosine receptor A3 (Homo sapiens, UniProt P0DMS8); type: cell membranes, CHO-K1, Membrane; conditions: cho-k1
T4 sequence (P0DMS8 whole entry): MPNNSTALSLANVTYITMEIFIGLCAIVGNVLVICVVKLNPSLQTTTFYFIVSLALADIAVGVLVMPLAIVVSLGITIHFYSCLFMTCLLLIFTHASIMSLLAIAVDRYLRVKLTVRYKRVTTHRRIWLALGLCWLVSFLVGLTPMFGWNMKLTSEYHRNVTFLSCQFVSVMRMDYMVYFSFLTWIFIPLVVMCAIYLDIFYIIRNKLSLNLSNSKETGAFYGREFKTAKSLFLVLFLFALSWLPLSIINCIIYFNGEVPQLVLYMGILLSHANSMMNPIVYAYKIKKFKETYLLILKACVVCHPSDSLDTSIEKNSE

Sequence of Mitogen-activated protein kinase 3 (P27361 whole entry): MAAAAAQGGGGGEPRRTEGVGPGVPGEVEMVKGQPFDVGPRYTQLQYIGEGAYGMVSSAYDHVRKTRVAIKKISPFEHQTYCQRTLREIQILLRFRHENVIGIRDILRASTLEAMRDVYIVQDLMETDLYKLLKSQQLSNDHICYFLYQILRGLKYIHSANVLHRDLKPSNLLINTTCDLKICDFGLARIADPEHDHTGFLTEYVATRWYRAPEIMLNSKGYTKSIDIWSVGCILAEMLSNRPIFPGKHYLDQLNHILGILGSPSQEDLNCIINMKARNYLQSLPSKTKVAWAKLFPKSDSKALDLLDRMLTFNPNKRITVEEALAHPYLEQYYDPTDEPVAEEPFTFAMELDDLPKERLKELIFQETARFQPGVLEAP

NC[C@@H]1O[C@H](O[C@H]2[C@@H](O)[C@H](O[C@@H]3[C@@H](O)[C@H](N)C[C@H](N)[C@H]3O[C@H]3O[C@H](CN)[C@@H](O)[C@H](O)[C@H]3N)O[C@@H]2CO)[C@H](N)[C@@H](O)[C@@H]1O [FRAMYCETIN]
Not Active: IC50 [1] | IC50 [2] | IC50 [3] | IC50 [4] | Ki [4] | IC50 (Melanocortin receptor 5) | IC50 [5] | IC50 [6] | IC50 (Adenosine receptor A3)

C[C@H]([C@](O)(Cn1cncn1)c1ccc(F)cc1F)S(C)(=O)=O [GENACONAZOLE]
Not Active: IC50 [1] | IC50 [2] | IC50 [3] | IC50 [4] | Ki [4] | IC50 (Melanocortin receptor 5) | IC50 [5] | IC50 [6] | IC50 (Adenosine receptor A3)

Cc1c(F)c(N2CCNC(C)C2)cc2c1c(=O)c(C(=O)O)cn2C1CC1 (stereo not drawn) [GREPAFLOXACIN]
Not Active: IC50 [1] | IC50 [2] | IC50 [3] | IC50 [4] | Ki [4] | IC50 (Melanocortin receptor 5) | IC50 [5] | IC50 [6] | IC50 (Adenosine receptor A3)

COc1ccccc1OCC(O)CO (stereo not drawn) [GUAIFENESIN]
Not Active: IC50 [1] | IC50 [2] | IC50 [3] | IC50 [4] | Ki [4] | IC50 (Melanocortin receptor 5) | IC50 [5] | IC50 [6] | IC50 (Adenosine receptor A3)

N=C(N)N/N=C/c1c(Cl)cccc1Cl [GUANABENZ]
Not Active: IC50 [1] | IC50 [2] | IC50 [3] | IC50 [4] | Ki [4] | IC50 (Melanocortin receptor 5) | IC50 [5] | IC50 [6] | IC50 (Adenosine receptor A3)

C[C@]12CCC(=O)C=C1CC[C@@H]1[C@@H]2[C@@H](O)C[C@@]2(C)[C@H]1CC[C@]2(O)C(=O)CO [HYDROCORTISONE]
Not Active: IC50 [1] | IC50 [2] | IC50 [3] | IC50 [4] | Ki [4] | IC50 (Melanocortin receptor 5) | IC50 [5] | IC50 [6] | IC50 (Adenosine receptor A3)

C/C=C\c1ccc(O)c(OC)c1 [ISOEUGENOL]
Not Active: IC50 [1] | IC50 [2] | IC50 [3] | IC50 [4] | Ki [4] | IC50 (Melanocortin receptor 5) | IC50 [5] | IC50 [6] | IC50 (Adenosine receptor A3)

NC[C@H]1O[C@H](O[C@H]2[C@H](O)[C@@H](O[C@H]3O[C@H](CO)[C@@H](O)[C@H](N)[C@H]3O)[C@H](N)C[C@@H]2N)[C@H](O)[C@@H](O)[C@@H]1O [KANAMYCIN]
Not Active: IC50 [1] | IC50 [2] | IC50 [3] | IC50 [4] | Ki [4] | IC50 (Melanocortin receptor 5) | IC50 [5] | IC50 [6] | IC50 (Adenosine receptor A3)

CC[C@H](C)C(=O)O[C@H]1C[C@@H](C)C=C2C=C[C@H](C)[C@H](CC[C@@H]3C[C@@H](O)CC(=O)O3)[C@H]21 [LOVASTATIN]
Not Active: IC50 [1] | IC50 [2] | IC50 [3] | IC50 [4] | Ki [4] | IC50 (Melanocortin receptor 5) | IC50 [5] | IC50 [6] | IC50 (Adenosine receptor A3)

CC(C(=O)O)c1ccc(CC2CCCC2=O)cc1 (stereo not drawn) [LOXOPROFEN]
Not Active: IC50 [1] | IC50 [2] | IC50 [3] | IC50 [4] | Ki [4] | IC50 (Melanocortin receptor 5) | IC50 [5] | IC50 [6] | IC50 (Adenosine receptor A3)

Cc1cccc(Nc2ccccc2C(=O)O)c1C [MEFENAMIC ACID]
Not Active: IC50 [1] | IC50 [2] | IC50 [3] | IC50 [4] | Ki [4] | IC50 (Melanocortin receptor 5) | IC50 [5] | IC50 [6] | IC50 (Adenosine receptor A3)

CC(=O)O[C@]1(C(C)=O)CC[C@H]2[C@@H]3C=C(C)C4=CC(=O)CC[C@]4(C)[C@H]3CC[C@@]21C [MEGESTROL ACETATE]
Not Active: IC50 [1] | IC50 [2] | IC50 [3] | IC50 [4] | Ki [4] | IC50 (Melanocortin receptor 5) | IC50 [5] | IC50 [6] | IC50 (Adenosine receptor A3)

COc1ccccc1OCC(O)COC(N)=O (stereo not drawn) [METHOCARBAMOL]
Not Active: IC50 [1] | IC50 [2] | IC50 [3] | IC50 [4] | Ki [4] | IC50 (Melanocortin receptor 5) | IC50 [5] | IC50 [6] | IC50 (Adenosine receptor A3)

CN(Cc1cnc2nc(N)nc(N)c2n1)c1ccc(C(=O)N[C@@H](CCC(=O)O)C(=O)O)cc1 [METHOTREXATE]
Not Active: IC50 [1] | IC50 [2] | IC50 [3] | IC50 [4] | Ki [4] | IC50 (Melanocortin receptor 5) | IC50 [5] | IC50 [6] | IC50 (Adenosine receptor A3)

COC(=O)c1ccccc1O [METHYL SALICYLATE]
Not Active: IC50 [1] | IC50 [2] | IC50 [3] | IC50 [4] | Ki [4] | IC50 (Melanocortin receptor 5) | IC50 [5] | IC50 [6] | IC50 (Adenosine receptor A3)

COc1ccc2cc(CCC(C)=O)ccc2c1 [NABUMETONE]
Not Active: IC50 [1] | IC50 [2] | IC50 [3] | IC50 [4] | Ki [4] | IC50 (Melanocortin receptor 5) | IC50 [5] | IC50 [6] | IC50 (Adenosine receptor A3)

O=C(O)c1cccnc1 [NIACIN]
Not Active: IC50 [1] | IC50 [2] | IC50 [3] | IC50 [4] | Ki [4] | IC50 (Melanocortin receptor 5) | IC50 [5] | IC50 [6] | IC50 (Adenosine receptor A3)
